{
  "source": "PubChem BioAssay AID1981",
  "about": "(Southern Research Specialized Biocontainment Screening …, 2009)",
  "data": [
    {"system": "S. Typhimurium PhoP-promoter GFP reporter counterscreen, fluorescence, 4 h", "experiment": "S. Typhimurium GFP fluorescence modified counterscreen for PhoP regulon inhibitor project dose response (AID 1981)", "units": {"IC50": "µM"}, "values": [
      {"smiles": "CC[C@H]1OC(=O)[C@H](C)[C@@H](O[C@H]2C[C@@](C)(OC)[C@@H](O)[C@H](C)O2)[C@H](C)[C@@H](O[C@@H]2O[C@H](C)C[C@H](N(C)C)[C@H]2O)[C@](C)(O)C[C@@H](C)[C@@H]2N[C@@H](COCCOC)O[C@H]([C@H]2C)[C@]1(C)O", "IC50": 22.6},
      {"smiles": "CCCOc1ccc(C(=O)NC(=S)N2CCN(c3cc4c(cc3F)c(=O)c(C(=O)O)cn4CC)CC2)cc1", "IC50": 18.6},
      {"smiles": "O=C(/C=C/c1ccco1)Oc1cc(Br)cc(/C=N/NC(=O)c2ccccc2O)c1", "IC50": 134},
      {"smiles": "O=C(NN=C1CCN(Cc2ccccc2)CC1)c1cc2ccccc2cc1O", "IC50": 128},
      {"smiles": "CCn1cc(C(=O)O)c(=O)c2cnc(N3CCNCC3)nc21", "IC50": 58.4},
      {"smiles": "Nc1cccc2nc3ccccc3cc12", "IC50": 43.4},
      {"smiles": "COc1cc(Cc2cc(N)nc(N)n2)cc(OC)c1OC", "IC50": 1},
      {"smiles": "Oc1c(C(Nc2ccccn2)c2ccccn2)ccc2cccnc12", "note": "(centres undefined)", "IC50": 55.2},
      {"smiles": "CN(C)C1C(=O)C(C(N)=O)=C(O)C2(O)C(=O)C3=C(O)c4c(O)cccc4C(C)(O)C3CC12", "note": "(centres undefined)", "IC50": 0.67},
      {"smiles": "Nc1ncn([C@@H]2O[C@H](CO)[C@@H](O)[C@H]2O)c(=O)n1", "IC50": 19.4},
      {"smiles": "O=C(C[n+]1cc(-c2ccc(Cl)c(Cl)c2)n2c1CCC2)N1c2ccccc2Sc2ccccc21", "IC50": 84.7},
      {"smiles": "COc1cc(C(=O)Oc2c(CN3CCOCC3)cc(Cl)c3cccnc23)cc(OC)c1OC", "IC50": 113},
      {"smiles": "CCOC(=O)Cc1csc(NC(=O)NC2(C(F)(F)F)Oc3cc(Cl)c(Cl)cc3O2)n1", "IC50": 67.8},
      {"smiles": "Nc1[nH]c(=O)ncc1F", "IC50": 10.6},
      {"smiles": "Cc1nc(N)c(Cc2ccc(Cl)cc2Cl)c(N)n1", "IC50": 86.9},
      {"smiles": "CC[n+]1c(/C=C/c2ccc(N(C)C)cc2)ccc2ccccc21", "IC50": 91.2},
      {"smiles": "COc1nsnc1NS(=O)(=O)c1ccc(NC(=S)NC(=O)c2cccnc2)cc1", "IC50": 34.4},
      {"smiles": "CC1CCC(C(C)C)C(OC(=O)Cn2c(COc3ccccc3)[n+](C)c3ccccc32)C1", "note": "(centres undefined)", "IC50": 85.5},
      {"smiles": "Cc1ccc(-c2c[n+](CC(=O)Nc3nc(-c4ccc(F)cc4)cs3)c3n2CCC3)cc1", "IC50": 72.5},
      {"smiles": "COc1cc(/C=C/[N+](=O)[O-])ccc1O", "IC50": 65.1},
      {"smiles": "Nc1ncncc1-c1ccc([N+](=O)[O-])cc1", "IC50": 136},
      {"smiles": "NC1=NC[C@H](Cc2ccc(O)cc2)N1CCCCC1CCCCC1", "IC50": 84.1},
      {"smiles": "Nc1ccc(Nc2ccccc2)cc1", "IC50": 92.1},
      {"smiles": "CCOc1cccc(CNc2ccc(O)cc2)c1OCc1ccc(Cl)cc1Cl", "IC50": 125},
      {"smiles": "O=[N+]([O-])c1cc(CN2CCCC2)c2cccnc2c1O", "IC50": 57.1},
      {"smiles": "Cc1ccc(C(=O)N/N=C/c2cc(Br)ccc2O)cn1", "IC50": 68.4},
      {"smiles": "CCCCCCCCCCCCCCCCn1cc[n+](CC(C)=O)c1", "IC50": 86.1},
      {"smiles": "CO/N=C(/C(=O)N[C@@H]1C(=O)N2C(C(=O)O)=CCS[C@H]12)c1cnc(N)s1", "IC50": 23.6},
      {"smiles": "COC12C(COC(N)=O)C3=C(C(=O)C(C)=C(N)C3=O)N1CC1C2N1C", "note": "(centres undefined)", "IC50": 65.8},
      {"smiles": "COc1cccc(N(C(=O)c2ccco2)c2nc(-c3sc(NC(=O)c4ccco4)nc3C)cs2)c1", "IC50": 126},
      {"smiles": "Cc1ccc(Nc2c3c(nc4ccccc24)CCC3)cc1", "IC50": 146},
      {"smiles": "O=C(O)CCN1C(=O)CC(N2C(=O)/C(=C/c3ccc(Cl)cc3)SC2=S)C1=O", "note": "(centres undefined)", "IC50": 22.5},
      {"smiles": "CCCCCCOC(=O)C[N+](C)(C)CCOC1CC2CCC1(C)C2(C)C", "note": "(centres undefined)", "IC50": 71.2},
      {"smiles": "CCc1ccc(CNc2ccc(O)cc2)cc1", "IC50": 94.9},
      {"smiles": "CCC(C)(C)c1ccc(OCCCC[n+]2ccccc2)c(C(C)(C)CC)c1", "IC50": 63.4},
      {"smiles": "Cc1cc(NC(c2cccnc2)c2ccc3cccnc3c2O)no1", "note": "(centres undefined)", "IC50": 130},
      {"smiles": "Cc1[nH]n(-c2ccccc2)c(=O)c1/C=N/Nc1nncc(-c2ccccc2)n1", "IC50": 22.1},
      {"smiles": "Nc1ncn(C2O[C@H](CO)[C@@H](O)[C@H]2O)c(=O)n1", "note": "(some centres undefined)", "IC50": 13.2},
      {"smiles": "CCCCCCCNC(=O)C1(CC2CC(c3cccc(Br)c3)=NO2)CCNCC1", "note": "(centres undefined)", "IC50": 58.7},
      {"smiles": "CCn1cc(C(=O)O)c(=O)c2cc(F)c(N3CCN(C(=S)NC(=O)c4cccc(C)c4)CC3)cc21", "IC50": 25.4},
      {"smiles": "CCCC(=O)NC(c1ccc(N(C)C)cc1)c1ccc2cccnc2c1O", "note": "(centres undefined)", "IC50": 49.4},
      {"smiles": "O=C(CN1CCCC1)N/N=C/c1c(O)ccc2ccccc12", "IC50": 70.6},
      {"smiles": "Cc1ccc(Nc2cc(C)nn2-c2nc(C)cc(=O)[nH]2)cc1", "IC50": 12.4},
      {"smiles": "CN(O)/C=c1/ccc2c(n1)C(=O)C=CC=2", "IC50": 54.1},
      {"smiles": "O=S(=O)(Nc1cc(Sc2cccc3cccnc23)c(O)c2ccccc12)c1ccc(F)cc1", "IC50": 57.2},
      {"smiles": "CCCCOc1ccc(Cc2cnc(N)nc2N)cc1", "IC50": 81.3},
      {"smiles": "CCn1cc(C(=O)O)c(=O)c2cc(F)c(N3CCN(C(=O)Nc4ccccc4)CC3)cc21", "IC50": 27.7},
      {"smiles": "Oc1c(C(Nc2cccc(C(F)(F)F)c2)c2cccnc2)ccc2cccnc12", "note": "(centres undefined)", "IC50": 56.2},
      {"smiles": "OC(c1cc(C(F)(F)F)nc2c(Cl)cc(Cl)cc12)C1CCCCN1", "note": "(centres undefined)", "IC50": 133},
      {"smiles": "C/C(=N\\N=C(N)N)c1ccc(Cl)c(Cl)c1", "IC50": 92.6},
      {"smiles": "CCCCNC(=O)c1cn(CC)c2cc(N3CCN(C)CC3)c(F)cc2c1=O", "IC50": 63.6},
      {"smiles": "COC(=O)C1C(O)C(C)C(O)C(C)(O)/C=C\\C=C(/C)C(=O)Nc2c(C)c(OC(C)=O)c3c(c2O)C(=O)C(C)=C2OCOC(=C23)/C(C)=C/C(C)(O)C(O)C(C)C1O", "note": "(centres undefined)", "IC50": 18.6},
      {"smiles": "CCCC(=O)NC(c1ccccc1)c1ccc2cccnc2c1O", "note": "(centres undefined)", "IC50": 32.1},
      {"smiles": "O=C(OCC1O[C@@H](OC(=O)c2cc(O)c(O)c(O)c2)[C@@H](OC(=O)c2cc(O)c(O)c(O)c2)[C@@H](OC(=O)c2cc(O)c(O)c(O)c2)[C@@H]1OC(=O)c1cc(O)c(O)c(O)c1)c1cc(O)c(O)c(O)c1", "note": "(some centres undefined)", "IC50": 83.1}
    ]}
  ]
}
